From ChEMBL document CHEMBL3217743, “Reduction of acyl glucuronidation in a series of acidic 11-hydroxysteroid dehydrogenase type 1 (11-HSD1) inhibitors: the discovery of AZD6925” (Medchemcomm, 2012) come the findings set out here.

Activity calls are given as the source filed them. Some results are limits rather than exact numbers.

One data set addresses Phosphodiesterase 4 (Homo sapiens, UniProt P27815+Q08499+Q07343+Q08493). Nature of the data set: Inhibition of PDE4 (unknown origin). It is filed as protein assay.
For another data set, the target named is CYP2C19 (Homo sapiens, UniProt P33261). The experiment in a line: Inhibition of CYP2C19 (unknown origin) at 10 uM relative to control. It is filed as ADME.
In data set [1] the target is 11-beta-hydroxysteroid dehydrogenase 1 (Homo sapiens, UniProt P28845).
Description: Inhibition of N-terminal 6-His-tagged human full length 11beta-HSD1 assessed as conversion of cortisone to cortisol after 25 mins by HTRF assay
A short description of data set [2]: Drug excretion in bile duct cannulated rat urine assessed as compound remaining by HPLC analysis. It counts as ADME, tissue-based. Conditions: read-out: Stability.
The next data set concerns the target CYP2C9 (Homo sapiens, UniProt P11712). The experiment in a line: Inhibition of CYP2C9 (unknown origin) at 10 uM relative to control. It is filed as ADME.
Data set [3] is described as follows: Volume of distribution at steady state in mouse at 1 to 3 mg/kg. To be noted: in vivo, read-out: Vdss. On the set-up: dose 1-3 mg/kg. It counts as ADME, organism-based.
Data set [4] deals with T1, Glucocorticoid receptor (Homo sapiens) (UniProt P04150).
T1 sequence (whole entry): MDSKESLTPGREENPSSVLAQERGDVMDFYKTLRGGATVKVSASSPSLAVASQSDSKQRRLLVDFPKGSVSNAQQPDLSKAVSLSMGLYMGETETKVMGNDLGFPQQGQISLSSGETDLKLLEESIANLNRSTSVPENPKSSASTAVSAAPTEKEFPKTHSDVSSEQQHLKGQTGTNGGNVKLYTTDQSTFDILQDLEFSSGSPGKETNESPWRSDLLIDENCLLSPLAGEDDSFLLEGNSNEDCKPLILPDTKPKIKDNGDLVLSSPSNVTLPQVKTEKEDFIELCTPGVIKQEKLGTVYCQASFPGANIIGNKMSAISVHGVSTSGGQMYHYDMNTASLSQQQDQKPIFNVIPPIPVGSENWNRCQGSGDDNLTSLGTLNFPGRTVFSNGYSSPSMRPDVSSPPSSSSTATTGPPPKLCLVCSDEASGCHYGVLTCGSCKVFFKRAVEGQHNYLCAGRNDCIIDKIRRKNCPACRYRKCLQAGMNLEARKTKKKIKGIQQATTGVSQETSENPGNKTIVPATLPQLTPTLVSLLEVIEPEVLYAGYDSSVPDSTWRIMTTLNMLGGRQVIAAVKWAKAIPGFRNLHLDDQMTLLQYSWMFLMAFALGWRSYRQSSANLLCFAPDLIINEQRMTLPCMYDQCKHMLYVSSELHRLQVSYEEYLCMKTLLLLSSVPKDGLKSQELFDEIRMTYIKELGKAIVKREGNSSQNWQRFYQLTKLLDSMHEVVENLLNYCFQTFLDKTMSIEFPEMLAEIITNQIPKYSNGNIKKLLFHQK
The experiment in a line: Activity at glucocorticoid receptor (unknown origin).

Data set [5] is described as follows: Half life in mouse at 1 to 3 mg/kg, iv. It counts as ADME, organism-based. On the set-up: dose 1-3 mg/kg, route intravenous. To be noted: in vivo.
The nature of data set [6]: Drug metabolism in human hepatocytes assessed as compound remaining by LC-MS/MS analysis. It is filed as ADME, cell-based, Hepatocyte.
Data set [7] addresses T2, Mineralocorticoid receptor (Homo sapiens) (UniProt P08235).
T2 sequence (whole entry): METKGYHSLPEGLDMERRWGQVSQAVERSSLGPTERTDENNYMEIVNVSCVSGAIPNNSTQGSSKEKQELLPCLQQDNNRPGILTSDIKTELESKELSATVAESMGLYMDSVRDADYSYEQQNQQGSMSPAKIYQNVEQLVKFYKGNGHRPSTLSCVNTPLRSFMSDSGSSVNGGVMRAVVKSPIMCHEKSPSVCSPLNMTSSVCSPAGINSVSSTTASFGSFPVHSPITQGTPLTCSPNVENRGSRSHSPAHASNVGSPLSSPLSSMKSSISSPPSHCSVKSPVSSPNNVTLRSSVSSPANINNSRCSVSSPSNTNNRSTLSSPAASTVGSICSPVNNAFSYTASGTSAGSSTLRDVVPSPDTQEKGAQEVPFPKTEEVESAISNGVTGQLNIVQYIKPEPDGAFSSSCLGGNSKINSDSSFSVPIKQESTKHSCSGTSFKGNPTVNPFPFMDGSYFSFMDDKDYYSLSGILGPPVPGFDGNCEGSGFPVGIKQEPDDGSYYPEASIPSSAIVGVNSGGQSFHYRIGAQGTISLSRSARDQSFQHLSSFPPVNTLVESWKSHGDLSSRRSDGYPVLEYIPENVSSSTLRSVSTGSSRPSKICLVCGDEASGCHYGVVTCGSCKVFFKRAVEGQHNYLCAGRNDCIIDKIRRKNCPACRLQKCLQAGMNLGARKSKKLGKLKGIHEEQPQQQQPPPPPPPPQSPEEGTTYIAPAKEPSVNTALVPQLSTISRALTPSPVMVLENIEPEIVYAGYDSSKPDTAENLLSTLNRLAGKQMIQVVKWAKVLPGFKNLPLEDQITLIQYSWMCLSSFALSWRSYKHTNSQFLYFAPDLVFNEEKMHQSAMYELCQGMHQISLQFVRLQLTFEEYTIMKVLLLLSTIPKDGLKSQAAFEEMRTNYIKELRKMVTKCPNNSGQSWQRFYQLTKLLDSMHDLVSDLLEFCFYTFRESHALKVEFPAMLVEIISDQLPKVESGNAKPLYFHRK
Nature of the data set: Activity at mineralocorticoid receptor (unknown origin).

A short description of data set [8]: Drug metabolism in dog hepatocytes assessed as compound remaining by LC-MS/MS analysis. It is filed as ADME, cell-based, Canis lupus familiaris, Hepatocyte.
The nature of data set [9]: Inhibition of N-terminal 6-His-tagged cynomolgus monkey full length 11beta-HSD1 assessed as conversion of cortisone to cortisol after 25 mins by HTRF assay. On the set-up: species or system Macaca fascicularis. For orientation: TR-FRET usually uses a lanthanide donor and a delayed reading to cut background.
Data set [10] is described as follows: Octanol-buffer partition coefficient, log D of the compound at pH 7.4 after 30 mins by shake-flask method. It counts as physicochemical.
Data set [11] in a line: Volume of distribution at steady state in rat at 1 to 3 mg/kg. It is filed as ADME, organism-based. On the set-up: dose 1-3 mg/kg. Conditions: in vivo, read-out: Vdss.
The nature of data set [12]: Half life in dog at 1 to 3 mg/kg, iv. It is filed as ADME, organism-based, Canis lupus familiaris. Conditions: in vivo. On the set-up: dose 1-3 mg/kg, route intravenous.
Data set [13] in a line: Apparent permeability from basolateral to apical side in MDCK cells at 10 uM. It counts as ADME, cell-based, Canis lupus familiaris. Conditions: dog.
The nature of data set [14]: Plasma clearance in rat at 1 to 3 mg/kg. On the set-up: dose 1-3 mg/kg. It counts as ADME, organism-based.
Data set [15] in a line: Half life in dog at 1 to 3 mg/kg, po. On the set-up: dose 1-3 mg/kg, route oral. It counts as ADME, organism-based, Canis lupus familiaris. Conditions: in vivo.
Data set [16] in a line: Half life in rat at 1 to 3 mg/kg, iv. On the set-up: dose 1-3 mg/kg, route intravenous. To be noted: in vivo. It is filed as ADME, organism-based.
Data set [17] is described as follows: Half life in rat at 1 to 3 mg/kg, po. It is filed as ADME, organism-based. Conditions: in vivo. On the set-up: dose 1-3 mg/kg, route oral.

Sequence of CYP2C19 (P33261 whole entry): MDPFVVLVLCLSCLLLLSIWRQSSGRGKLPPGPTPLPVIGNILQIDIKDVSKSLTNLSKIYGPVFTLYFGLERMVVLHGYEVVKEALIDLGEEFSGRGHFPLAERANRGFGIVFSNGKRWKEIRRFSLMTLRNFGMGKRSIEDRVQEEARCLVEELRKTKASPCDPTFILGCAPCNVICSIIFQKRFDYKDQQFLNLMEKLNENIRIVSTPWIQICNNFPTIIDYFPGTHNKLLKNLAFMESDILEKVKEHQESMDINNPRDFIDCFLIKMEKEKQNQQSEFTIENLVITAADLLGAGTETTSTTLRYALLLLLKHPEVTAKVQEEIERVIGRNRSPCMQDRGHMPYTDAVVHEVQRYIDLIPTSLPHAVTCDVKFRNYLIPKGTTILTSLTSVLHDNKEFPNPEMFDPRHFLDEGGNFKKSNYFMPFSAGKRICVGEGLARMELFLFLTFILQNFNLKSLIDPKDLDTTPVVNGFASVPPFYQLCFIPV
Sequence of 11-beta-hydroxysteroid dehydrogenase 1 (P28845 whole entry): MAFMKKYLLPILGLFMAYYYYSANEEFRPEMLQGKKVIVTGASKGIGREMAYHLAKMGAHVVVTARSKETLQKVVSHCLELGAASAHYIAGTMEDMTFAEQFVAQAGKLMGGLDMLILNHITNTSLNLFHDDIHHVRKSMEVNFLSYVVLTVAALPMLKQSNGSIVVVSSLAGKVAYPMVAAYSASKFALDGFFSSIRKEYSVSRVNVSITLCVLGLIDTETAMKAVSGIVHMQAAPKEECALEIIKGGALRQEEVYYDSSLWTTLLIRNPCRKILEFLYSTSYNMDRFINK
Sequence of CYP2C9 (P11712 whole entry): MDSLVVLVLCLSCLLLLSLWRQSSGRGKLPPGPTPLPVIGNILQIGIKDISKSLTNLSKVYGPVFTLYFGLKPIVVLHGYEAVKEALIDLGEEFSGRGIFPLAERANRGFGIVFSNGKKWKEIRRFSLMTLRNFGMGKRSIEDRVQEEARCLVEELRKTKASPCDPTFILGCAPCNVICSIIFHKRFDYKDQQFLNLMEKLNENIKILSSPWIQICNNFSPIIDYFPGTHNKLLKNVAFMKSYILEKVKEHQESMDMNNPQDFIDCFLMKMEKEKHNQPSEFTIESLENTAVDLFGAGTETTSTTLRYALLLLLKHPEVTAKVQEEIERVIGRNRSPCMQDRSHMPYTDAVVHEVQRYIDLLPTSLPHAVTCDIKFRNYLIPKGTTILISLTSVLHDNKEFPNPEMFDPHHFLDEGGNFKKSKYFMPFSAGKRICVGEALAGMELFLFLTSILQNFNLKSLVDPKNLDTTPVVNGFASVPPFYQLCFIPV

In general, IC50 refers to the concentration needed to halve the response being measured. The term inhibition denotes the drop in the measured response relative to a control, in per cent. Usually half-life stands for the time needed for the level to fall by half in the phase considered. As usually defined, the logD is lipophilicity at a set pH, counting ionised and neutral species. The term Papp B→A denotes how fast a substance crosses the layer from the basolateral side. As usually defined, the clearance is a measure of how efficiently the substance is removed, as volume per time. Consider `CSc1nc(N2C[C@@H]3[C@H](C2)[C@H]3C(=O)O)ccc1C(=O)NC12CC3CC(CC(C3)C1)C2`, for which the IC50 stood at 30 µM on Phosphodiesterase 4, 0.006 µM in data set [1] and 0.02 µM in [9]. In addition, the inhibition at 10 µM on CYP2C19 and against CYP2C9 was less than 25% each time. Besides, in [2], the dose excreted was found to be 7.6%. The results for the Vd in [3] and in data set [11] were 1.2 L/kg and 0.9 L/kg, respectively. The outcome in data set [4] and in data set [7] was inactive. Also, the half-life was 2.5 h in data set [5]; 15 h in data set [12]; 27 h in data set [15]; 4.3 h in data set [16]; 4.3 h in data set [17]. Further, the Stability in data set [6] is 94%; in data set [8], 92%. Further, the logD at 0.5 h in data set [10] was found to be 2.1. For the same compound, the Papp B→A at 10 µM in [13] is 13 ×10⁻⁶ cm/s. In data set [14], this compound displayed a clearance of 6 mL/min/kg.
